Several values for one entry are separate records, joined by “and”; a condition that tells them apart may be missing. Equal values may be shown once.
Conditions: Liquid, Pendant drop shape

CCCCn1cc[n+](C)c1.CCOCCOCCOS(=O)(=O)[O-] [1-butyl-3-methylimidazolium 2-(2-ethoxyethoxy)ethylsulfate] + O=C=O
Conditions | interfacial tension [mN/m]
281.3 K, 1960 kPa | 23
281.3 K, 3680 kPa | 10.8
281.31 K, 100 kPa | 34.5
281.31 K, 3150 kPa | 15.1
281.32 K, 1110 kPa | 28.2
281.48 K, 4300 kPa | 4.6
281.58 K, 5100 kPa | 4.5
281.58 K, 6970 kPa | 4.5
281.61 K, 9890 kPa | 4
281.61 K, 13700 kPa | 3.8
281.63 K, 17000 kPa | 3.7
281.63 K, 19930 kPa | 3.5
281.69 K, 100 kPa | 34.3
281.69 K, 1490 kPa | 25.4
281.7 K, 600 kPa | 30.6
281.7 K, 2830 kPa | 17.3
281.7 K, 4160 kPa | 6.5
281.84 K, 4340 kPa | 4.9
281.86 K, 12130 kPa | 4.4
281.87 K, 5900 kPa | 4.7
281.91 K, 18060 kPa | 3.7
295.14 K, 100 kPa | 34
295.2 K, 100 kPa | 34.2
295.3 K, 1030 kPa | 29.3
295.39 K, 1980 kPa | 25
295.5 K, 3350 kPa | 18.8
295.8 K, 3950 kPa | 16.3
296.03 K, 4960 kPa | 12.4
296.29 K, 6150 kPa | 12.8
296.31 K, 6630 kPa | 5.8
296.35 K, 8190 kPa | 5.6
296.42 K, 10120 kPa | 5.2
296.5 K, 14370 kPa | 4.8
296.53 K, 17640 kPa | 4.5
319.53 K, 100 kPa | 33.3
319.57 K, 2130 kPa | 27.7
319.58 K, 1030 kPa | 30.4
319.58 K, 3610 kPa | 23.6
319.59 K, 5010 kPa | 19.5
319.6 K, 6190 kPa | 16.4
319.63 K, 7090 kPa | 14
319.69 K, 8100 kPa | 12.3
319.71 K, 9070 kPa | 7.7
319.78 K, 10070 kPa | 7.9
319.78 K, 11080 kPa | 8
319.79 K, 11720 kPa | 7.9
319.85 K, 14840 kPa | 7.6
319.91 K, 17840 kPa | 7.1
319.94 K, 20870 kPa | 6.7

CCOCCOCCOS(=O)(=O)[O-].CCn1cc[n+](C)c1 [1-ethyl-3-methylimidazolium 2-(2-ethoxyethoxy)ethylsulfate] + O=C=O
Conditions | interfacial tension
280.25 K, 100 kPa | 36.7 mN/m and 37.3 mN/m
280.26 K, 1170 kPa | 30.3 mN/m
280.26 K, 2340 kPa | 22.6 mN/m
280.26 K, 3340 kPa | 15.5 mN/m
280.28 K, 3950 kPa | 9.8 mN/m
280.4 K, 4240 kPa | 6.3 mN/m
280.46 K, 5230 kPa | 6.6 mN/m
280.46 K, 7030 kPa | 6 mN/m
280.49 K, 8960 kPa | 5.8 mN/m
280.51 K, 10860 kPa | 5.4 mN/m
280.53 K, 12970 kPa | 5.4 mN/m
280.54 K, 15110 kPa | 5.1 mN/m
280.55 K, 17290 kPa | 5.1 mN/m
280.58 K, 20670 kPa | 4.7 mN/m
299.4 K, 100 kPa | 36.2 mN/m
299.43 K, 4810 kPa | 14.9 mN/m
299.43 K, 14740 kPa | 6.6 mN/m
299.45 K, 16390 kPa | 6.4 mN/m
299.46 K, 17880 kPa | 6.2 mN/m
299.47 K, 6680 kPa | 8.6 mN/m
299.48 K, 20360 kPa | 6 mN/m
299.53 K, 10230 kPa | 7.6 mN/m
299.54 K, 12350 kPa | 6.8 mN/m
299.55 K, 8330 kPa | 7.9 mN/m
319.74 K, 2000 kPa | 28.5 mN/m
319.74 K, 3090 kPa | 25.1 mN/m
319.74 K, 4040 kPa | 22.2 mN/m
319.75 K, 100 kPa | 35.5 mN/m and 35.4 mN/m
319.75 K, 1010 kPa | 31.5 mN/m
319.75 K, 5010 kPa | 19.4 mN/m
319.76 K, 5950 kPa | 16.5 mN/m
319.76 K, 8950 kPa | 7.6 mN/m
319.78 K, 7260 kPa | 13.1 mN/m
319.87 K, 10740 kPa | 9.8 mN/m
319.87 K, 12430 kPa | 8.9 mN/m
319.95 K, 14470 kPa | 8.4 mN/m
319.98 K, 17410 kPa | 7.8 mN/m
320.03 K, 20790 kPa | 7.7 mN/m

Reference: the NIST ThermoML archive (doi:10.1021/je8006937)
